In patent US20030163846A1, “Process for the genetic modification of a plant” (priority 2000, published 2003):

Key:
AtSUT2 = biological target: T1, AtSUT2 (Arabidopsis thaliana, UniProt O80605); experiment: substrate specificity and inhibition of saccharose uptake by AtSUT2 in yeast; format: cell-based; settings: for competition with 14C-saccharose uptake: 1 mM saccharose, competitively with other sugars and sugar alcohols
T1 construct: expressed in transfected cells; host or cells: Saccharomyces cerevisiae SEY6210, expression vector pDR196
T1 sequence (O80605 1-594): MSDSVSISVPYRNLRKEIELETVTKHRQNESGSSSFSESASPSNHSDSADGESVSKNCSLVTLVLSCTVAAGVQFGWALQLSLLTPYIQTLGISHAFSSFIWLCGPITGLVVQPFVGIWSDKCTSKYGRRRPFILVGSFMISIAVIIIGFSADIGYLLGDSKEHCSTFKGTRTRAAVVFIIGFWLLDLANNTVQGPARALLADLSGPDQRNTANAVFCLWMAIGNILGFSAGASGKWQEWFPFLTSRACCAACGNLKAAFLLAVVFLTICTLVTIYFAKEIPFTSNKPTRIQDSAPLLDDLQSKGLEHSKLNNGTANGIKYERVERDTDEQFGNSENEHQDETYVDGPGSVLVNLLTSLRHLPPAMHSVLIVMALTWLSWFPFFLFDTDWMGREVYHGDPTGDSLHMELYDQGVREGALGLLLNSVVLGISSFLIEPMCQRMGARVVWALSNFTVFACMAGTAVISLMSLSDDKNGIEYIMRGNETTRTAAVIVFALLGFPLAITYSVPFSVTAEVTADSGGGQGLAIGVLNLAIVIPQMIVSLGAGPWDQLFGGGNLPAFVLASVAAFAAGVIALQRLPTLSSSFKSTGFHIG
Protocol: The saccharose uptake by AtSUT2 was pH-dependent, and the highest uptake rates were measured at a pH of 4.0. […] To determine the substrate specificity of AtSUT2, the saccharose uptake (1 mM saccharose) was measured competitively with other sugars and sugar alcohols.

leaf blades = settings: high affinity/low capacity system, cited from earlier work
SUT4 = experiment: stimulation/inhibition of uptake of 14C-saccharose by means of SUT4 (FIG. 5C); format: cell-based
Protocol: (§1) For the saccharose uptake tests, yeast was cultivated in a liquid minimal medium containing glucose, up to an OD623 of approximately 0.8. Cells were collected by means of centrifugation, washed in 25 mM sodium phosphate buffer (pH 5.5), and suspended in the same buffer at an OD623 of 20. The uptake tests were initiated by adding glucose ending at a final concentration of 10 mM to the yeast cells one minute before adding ^14C-saccharose. Following incubation at 30° C. while stirring, cells were collected by means of vacuum filtration on fiberglass filters (1-5 minutes), washed twice with 4 mL 10 mM saccharose (at the freezing point), and the radioactivity was determined using a liquid scintillation counter. […] A significant difference compared with the vector controls is apparent.
The stimulation of the uptake of ^14C-saccharose by means of SUT4 through glucose and the inhibition through an electron transport inhibitor (antimycin A and the protonophore CCCP is shown in FIG. 5C).

[1] = 14-C saccharose uptake tests in yeast strain SEY6210 expressing AtSUT2, StSUT1 or chimeric proteins; format: cell-based; settings: for Km: AtSUT2 at a pH of 4
Protocol: It was shown that the saccharose uptake by yeast cells that express AtSUT2 was linear in the first five minutes of the test. During this period, 0.1 nmol saccharose accumulated in 10^8 cells. […] By contrast, the transport rate with StSUT1-expressing cells was 400 times greater than with AtSUT2-expressing cells. […] Using the Michaelis-Menten equation and a nonlinear regression analysis, a KM value of 11.7±1.2 mM
Table: KM values for saccharose of the saccharose transporters StSUT1 and AtSUT2 as well as of chimeric proteins in which the N-terminal regions or central cytoplasmic loops are exchanged between the two transporters. The values were determined as mean values±standard errors from at least three different measurements. Different letters indicate significant differences (p<0.05).

[2] = 14C-saccharose uptake tests in yeast expressing SUT4 (SUSY7/ura3); format: cell-based
Protocol: The yeast strain SUSY7/ura3 is a modified version of SUSY7 (Riesmeier et al., EMBO J. (1992) 11, 4705-4713), which contains a deletion of a portion of the URA3 gene and, as a result, permits selection for uracil auxotrophy. Media that contained the 1.7 g/L yeast nitrogen base without amino acids (Difco), 2% saccharose, 20 mg/L tryptophane, and 1.5% agarose, pH 5.0, were used to analyze yeast growth on a saccharose medium.
as §1
Data for the kinetic analysis were obtained for SUT4 from a nonlinear regression of the uptake measurements using the Michaelis-Menten equation. Km was represented as an average of eight determinations using three independent transformants±standard deviation. The KM value for saccharose that was determined was 11.6±0.6 mM (at a pH of 5.5) and 5.9±0.8 mM (at a pH of 4.0) for SUT4 from arabidopsis. For SUT4 from Solanum tuberosum the KM value was 6.0±1.2 mM (pH 4.0) (see FIG. 5B).

Question: Which “competition with 14C-saccharose uptake” value (AtSUT2) does the source give for `OC[C@H]1O[C@H](OC[C@H]2OC(O)(CO)[C@@H](O)[C@@H]2O)[C@H](O)[C@@H](O)[C@@H]1O` (some centres unmarked) [isomaltulose] here?
Answer: only the saccharose and to a lesser extent maltose were able to compete significantly

Question: Which results are given for `OC[C@H]1O[C@@](CO)(O[C@H]2O[C@H](CO)[C@@H](O)[C@H](O)[C@H]2O)[C@@H](O)[C@@H]1O` [saccharose]?
Answer: competition with 14C-saccharose uptake (AtSUT2): able to compete significantly; Km (leaf blades; read-out: Km of saccharose intake): 2.7 mM; Vmax of saccharose intake (leaf blades): 0.7 nmol cm^−2 min^−1

Question: For `OC[C@H](O)[C@@H](O)[C@H](O)[C@H](O)CO[C@H]1O[C@H](CO)[C@@H](O)[C@H](O)[C@H]1O` [glucosorbitol], which “competition with 14C-saccharose uptake” value (AtSUT2) is on record?
Answer: only the saccharose and to a lesser extent maltose were able to compete significantly

Question: Which “competition with 14C-saccharose uptake” value (AtSUT2) does the source give for `OC[C@H]1O[C@@H](O[C@H]2[C@H](O)[C@@H](O)C(O)O[C@@H]2CO)[C@H](O)[C@@H](O)[C@H]1O` (some centres unmarked) [lactose] here?
Answer: only the saccharose and to a lesser extent maltose were able to compete significantly

Question: Which “competition with 14C-saccharose uptake” value (AtSUT2) does the source give for `OC[C@@H](O)[C@@H](O)[C@H](O)[C@@H](O)CO` [sorbitol] here?
Answer: only the saccharose and to a lesser extent maltose were able to compete significantly

Question: For `OC[C@@H](O)[C@@H](O)[C@H](O)[C@H](O)CO[C@H]1O[C@H](CO)[C@@H](O)[C@H](O)[C@H]1O` [glucomannitol], which “competition with 14C-saccharose uptake” value (AtSUT2) is on record?
Answer: only the saccharose and to a lesser extent maltose were able to compete significantly

Question: For `O=C[C@H](O)[C@@H](O)[C@@H](O)[C@H](O)CO` [galactose], which “competition with 14C-saccharose uptake” value (AtSUT2) is on record?
Answer: only the saccharose and to a lesser extent maltose were able to compete significantly

Question: Which “competition with 14C-saccharose uptake” value (AtSUT2) does the source give for `OC[C@@H](O)[C@@H](O)[C@H](O)[C@H](O)CO` [mannitol] here?
Answer: only the saccharose and to a lesser extent maltose were able to compete significantly

Question: Which “competition with 14C-saccharose uptake” value (AtSUT2) does the source give for `OC[C@H]1O[C@H](OC[C@H]2O[C@H](O[C@]3(CO)O[C@H](CO)[C@@H](O)[C@@H]3O)[C@H](O)[C@@H](O)[C@@H]2O)[C@H](O)[C@@H](O)[C@H]1O` [raffinose] here?
Answer: only the saccharose and to a lesser extent maltose were able to compete significantly

Question: Which results are given for antimycin A?
Answer: inhibition of saccharose transport by means of AtSUT2 (AtSUT2): inhibited; effect on uptake of 14C-saccharose by means of SUT4 (SUT4): inhibition

Question: Which “inhibition of saccharose transport by means of AtSUT2” value (AtSUT2) does the source give for `N#CC(C#N)=NNc1cccc(Cl)c1` [CCCP] here?
Answer: inhibited

Question: And the “effect on uptake of 14C-saccharose by means of SUT4” value (SUT4)?
Answer: inhibition

B1: StSUT1: high-affinity saccharose transporter SUT1 from Solanum tuberosum, SEQ ID no. 23 (protein, listed as Solanum tuberosum)
chain: MENGTKREGLGKLTVSSSLQVEQPLAPSKLWKIIVVASIAAGVQFGWALQLSLLTPYVQLLGIPHKFASFIWLCGPISGMIVQPVVGYYSDNCSSRFGRRRPFIAAGAALVMIAVFLIGFAADLGHASGDTLGKGFKPRAIAVFVVGFWILDVANNMLQGPCRALLADLSGGKSGRMRTANAFFSFFMAVGNILGYAAGSYSHLFKVFPFSKTKACDMYCANLKSCFFIAIFLLLSLTTIALTLVRENELPEKDEQEIDEKLAGAGKSKVPFFGEIFGALKELPRPMWILLLVTCLNWIAWFPFFLYDTDWMAKEVFGGQVGDARLYDLGVRAGAMGLLLQSVVLGFMSLGVEFLGKKIGGAKRLWGILNFVLAICLAMTILVTKMAEKSRQHDPAGTLMGPTPGVKIGALLLFAALGIPLAATFSIPFALASIFSSNRGSGQGLSLGVLNLAIVVPQMLVSLVGGPWDDLFGGGNLPGFVVGAVAAAASAVLALTMLPSPPADAKPAVAMGGFH
Question: Which “KM value for saccharose, fold lower than AtSUT2” value [1] does the source give for B1 here?
Answer: 10 times

Question: And the “transport rate relative to AtSUT2-expressing cells” value [1]?
Answer: 400 times

Question: And the Vmax ([1]; table)?
Answer: 210.2 ± 5.7 nmol saccharose min^−1 10^8 ce

Question: And the Vmax ([1]; yeast SEY6210)?
Answer: 210.2 nmol·min^−1 10^8 cells^−1

Question: What about the Km ([1]; yeast SEY6210) of the same molecule?
Answer: 1.7 mM

B2: AtSUT2: SUT2 from Arabidopsis thaliana, SEQ ID no. 7; low-affinity saccharose transporter, sensor and/or regulator (protein, listed as Arabidopsis thaliana)
chain: T1 sequence (O80605 1-594)
Question: With B2 as the molecule, how does the “pH of highest uptake rates” value [1] read?
Answer: 4.0

Question: What about the “saccharose accumulated in 10^8 cells” value ([1]; first five minutes of the test, in 10^8 cells) of the same molecule?
Answer: 0.1 nmol

Question: And the “uptake of saccharose compared with yeast cells expressing empty vector pDR196” value ([1]; p<0.05)?
Answer: significantly higher

Question: What about the “saccharose uptake at a pH of 6” value ([1]; pH of 6) of the same molecule?
Answer: no further saccharose uptake was measured

Question: What about the Vmax ([1]; table) of the same molecule?
Answer: 1.5 ± 0.1 nmol saccharose min^−1 10^8 ce

Question: What about the Vmax ([1]; yeast SEY6210) of the same molecule?
Answer: 1.5 nmol·min^−1 10^8 cells^−1

Question: What about the Km ([1]; yeast SEY6210) of the same molecule?
Answer: 11.7 mM

B3: StSUT4: saccharose transporter SUT4 from Solanum tuberosum, amino acid sequence SEQ ID no. 28 (protein, listed as Solanum tuberosum)
chain: MPEIERHRTRHNRPAIREPVKPRVPLRLLFRVASVAGGIQFGWALQLSLLTPYVQELGIPHAWASIIWLCGPLSGLLVQPLVGHMSDKCTSRFGRRRPFIVAGAVSIMIAVLIIGFSADIGWLLGDRGEIKVRAIAAFVVGFWLLDVANNMTQGPCRALLADLTQKDHRRTRVANAYFSLFMAIGNILGFATGSYSGWFKIFPFTLNTACTINCANLKAAFIIDIIFIATTTCISISAANEQPLDPSRGSSHTREEIGESSHGQEEAFLWELFGIFKYFPGVVWVILLVTALTWIGWFPFLLFDTDWFGREIYGGEPNDGKNYSAGVRMGSLGLMLNSVLLGLTSLFMEKLCRKWGAGFTWGVSNVVMSLCFIAMLIITAVRSNIDIGQGLPPDGIVIAALVVFSILGIPLAITYSVPYALVSSRIDALGLGQGLSMGVLNLAIVFPQIVVSLGSGPWDELFGGGNSPAFVVAALSAFAGGLIAILAIPRTRVEKPKIFA
Question: Which “functional saccharose transporter (uptake of 14C-saccharose vs vector controls)” value ([2]; FIG. 5A) does the source give for B3 here?
Answer: functional saccharose transporters

Question: And the Km ([2]; pH 4.0, Michaelis-Menten nonlinear regression, average ± standard deviation)?
Answer: 6 ± 1.2 mM
